Tests used:
Format in all cases: functional
[1] = tested on: Staphylococcus aureus; test: Antibacterial activity against penicillin sensitive Staphylococcus aureus 663E
[2] = tested on: Haemophilus influenzae; test: Antibacterial activity against Haemophilus influenzae 49247
[3] = tested on: Pseudomonas aeruginosa; test: Antibacterial activity against Pseudomonas aeruginosa 1911E
[4] = tested on: Staphylococcus aureus; test: Antibacterial activity against beta-lactamase producing Staphylococcus aureus 853E
[5] = tested on: Bacteroides fragilis; test: Antibacterial activity against Bacteroides fragilis 2017E
[6] = tested on: Escherichia coli; test: Antibacterial activity against permeable Escherichia coli DC2
[7] = tested on: Staphylococcus aureus; test: Antibacterial activity against methicillin resistant Staphylococcus aureus 1131
[8] = tested on: Staphylococcus aureus; test: Antibacterial activity against methicillin resistant Staphylococcus aureus COL
[9] = tested on: Proteus mirabilis; test: Antibacterial activity against permeable beta-lactamase producing Proteus mirabilis 355
[10] = tested on: Enterococcus faecalis; test: Antibacterial activity against Enterococcus faecalis 850
[11] = tested on: Clostridium perfringens; test: Antibacterial activity against Clostridium perfringens 615E
[12] = tested on: Escherichia coli; test: Antibacterial activity against permeable beta-lactamase producing Escherichia coli DC2 TEML
[13] = tested on: Pseudomonas aeruginosa; test: Antibacterial activity against Pseudomonas aeruginosa 2032E WT
[14] = tested on: Pseudomonas aeruginosa; test: Antibacterial activity against permeable mutant Pseudomonas aeruginosa 2033E
[15] = tested on: Enterobacter cloacae; test: Antibacterial activity against permeable beta-lactamase producing Enterobacter cloacae 3647
[16] = tested on: Escherichia coli; test: Antibacterial activity against wild Escherichia coli DC0

SMILES | MIC [1] | MIC [2] | MIC [3] | MIC [4] | MIC [5] | MIC [6] | MIC [7] | MIC [8] | MIC [9] | MIC [10] | MIC [11] | MIC [12] | MIC [13] | MIC [14] | MIC [15] | MIC [16]
CC1(C)CCC2(C)CCC(C)(C)NC2=N1.CO[C@H]1CC[C@H]2C(=C(C(=O)O)N3C(=O)[C@H]([C@@H](C)O)[C@@H]23)C1 | 0.25 µg/mL | 0.5 µg/mL | > 32 µg/mL | 0.5 µg/mL | 1 µg/mL | 1 µg/mL | 32 µg/mL | > 32 µg/mL | 4 µg/mL | 4 µg/mL | 0.5 µg/mL | 1 µg/mL | > 32 µg/mL | 1 µg/mL | 1 µg/mL | 1 µg/mL
CC1(C)CCC2(C)CCC(C)(C)NC2=N1.CO[C@@H]1CC[C@H]2C(=C(C(=O)O)N3C(=O)[C@H]([C@@H](C)O)[C@@H]23)C1 | 1 µg/mL | 16 µg/mL | > 32 µg/mL | 1 µg/mL | 32 µg/mL | 0.5 µg/mL | > 32 µg/mL | > 32 µg/mL | 32 µg/mL | > 32 µg/mL | 8 µg/mL | 1 µg/mL | > 32 µg/mL | 16 µg/mL | 16 µg/mL | 16 µg/mL
C[C@@H](O)[C@H]1C(=O)N2C(C(=O)O)=C(SCCNC=N)C[C@H]12.O [IMIPENEM] | 0.13 µg/mL | 1 µg/mL | 4 µg/mL | 0.13 µg/mL | 0.13 µg/mL | 0.5 µg/mL | 4 µg/mL | > 32 µg/mL | 1 µg/mL | 1 µg/mL | 0.06 µg/mL | 0.5 µg/mL | 4 µg/mL | 0.5 µg/mL | 2 µg/mL | 0.5 µg/mL

— ChEMBL document CHEMBL1128062, “Tricyclic -lactams: total synthesis and antibacterial activity of 5- and 5-methoxy-tribactams” (1995)
